Like-named read-outs stand apart in the source and are kept apart here.
Experiments:
[1] = molecular target: KRAS G12D (Homo sapiens, UniProt P01116, G12D); test: In-vitro RAS-RAF binding assay (RRB), HTRF/FRET; assay type: biochemical; parameters: Biotinylated KRAS protein amino acids 1-169 (produced at Erasca); made in house; details: read-out: Inhibition of RAS-RAF Binding (in-vitro) KRAS (G12D) IC50
Procedure, shortened: (§1)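 Compounds preincubated with terbium-labelled biotinylated KRAS (aa 1-169, 30 nM) before 60 min SOS1-catalysed exchange to GTPgS. Binding of the d2-labelled cRAF RBD (30 nM) is read as FRET at equilibrium in duplicate. Buffer: 50 mM HEPES pH 7.5, 100 mM NaCl, 1 mM MgCl2, 1 mM DTT.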

[2] = molecular target: T1, KRAS (WT) (Homo sapiens, UniProt P01116); test: In-vitro RAS-RAF binding assay (RRB), HTRF/FRET; assay type: biochemical; details: read-out: Inhibition of RAS-RAF Binding (in-vitro) KRAS (WT) IC50
T1 construct: Biotinylated KRAS protein amino acids 1-169 (produced at Erasca); made in house
T1 sequence (P01116 1-169 isoform P01116-2): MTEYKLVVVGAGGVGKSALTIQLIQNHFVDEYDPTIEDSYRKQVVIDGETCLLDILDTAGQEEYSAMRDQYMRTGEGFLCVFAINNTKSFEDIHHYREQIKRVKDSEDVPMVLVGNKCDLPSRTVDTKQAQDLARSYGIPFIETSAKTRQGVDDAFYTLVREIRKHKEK
Procedure, shortened: as §1

[3] = Table 2, average of multiple runs of each compound

KRAS G12D, sequence (P01116 1-169 isoform P01116-2 G12D): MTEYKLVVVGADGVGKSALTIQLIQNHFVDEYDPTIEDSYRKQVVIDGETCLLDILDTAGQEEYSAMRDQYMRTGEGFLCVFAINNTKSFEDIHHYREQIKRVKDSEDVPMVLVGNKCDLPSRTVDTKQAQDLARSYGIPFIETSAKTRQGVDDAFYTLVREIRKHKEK

Row | IC50 [1, 3] [µM] | IC50 [2, 3] [µM] | IC50 ([1]; Table 1) [µM] | IC50 ([2]; Table 1) [µM] | Structure (SMILES)
1 | 0.00882 | 0.123 |  |  | C#Cc1c(F)ccc2cc(O)cc(-c3ncc4c(N5CC6CCC(C5)N6)nc(OC[C@@H]5CCCN5CCCOCC(=O)N[C@H](C(=O)N5C[C@H](O)C[C@H]5C(=O)N[C@@H](C)c5ccc(-c6c(F)ccc(F)c6F)cc5)C(C)(C)C)nc4c3F)c12 [Example 53, (2S,4R)-1-((2S)-2-(2-(3-((2S)-2-(((4-(3,8-diazabicyclo[3.2.1]octan-3-yl)-7-(8-ethynyl-7-fluoro-3-hydroxynaphthalen-1-yl)-8-fluoropyrido[4,3-d]pyrimidin-2-yl)oxy)methyl)pyrrolidin-1-yl)propoxy)acetamido)-3,3-dimethylbutanoyl)-4-hydroxy-N-((S)-1-(2′,3′,6′-trifluoro-[1,1′-biphenyl]-4-yl)ethyl)pyrrolidine-2-carboxamide]
2 | 0.0128 | 0.069 |  |  | Cc1ncsc1-c1ccc([C@H](C)NC(=O)[C@@H]2C[C@@H](O)CN2C(=O)[C@@H](NC(=O)CCCCN2CCC[C@H]2COc2nc(N3CC4CCC(C3)N4)c3cc(Cl)c(-c4ccc(F)c5sc(N)c(C#N)c45)c(F)c3n2)C(C)(C)C)cc1 [Example 84, (2S,4R)-1-((2S)-2-(5-((2S)-2-(((7-(2-amino-3-cyano-7-fluorobenzo[b]thiophen-4-yl)-4-(3,8-diazabicyclo[3.2.1]octan-3-yl)-6-chloro-8-fluoroquinazolin-2-yl)oxy)methyl)pyrrolidin-1-yl)pentanamido)-3,3-dimethylbutanoyl)-4-hydroxy-N-((S)-1-(4-(4-methylthiazol-5-yl)phenyl)ethyl)pyrrolidine-2-carboxamide]
3 | 0.0077 | 0.484 |  |  | C[C@H](NC(=O)[C@@H]1C[C@@H](O)CN1C(=O)[C@@H](NC(=O)CCCCN1CCC[C@H]1COc1nc(N2CC3CCC(C2)N3)c2cnc(-c3cc(O)cc4cccc(F)c34)c(F)c2n1)C(C)(C)C)c1ccc(-c2ccccc2)cc1 [Example 83, (2S,4R)-1-((2S)-2-(5-((2S)-2-(((4-(3,8-diazabicyclo[3.2.1]octan-3-yl)-8-fluoro-7-(8-fluoro-3-hydroxynaphthalen-1-yl)pyrido[4,3-d]pyrimidin-2-yl)oxy)methyl)pyrrolidin-1-yl)pentanamido)-3,3-dimethylbutanoyl)-N-((S)-1-([1,1′-biphenyl]-4-yl)ethyl)-4-hydroxypyrrolidine-2-carboxamide]
4 | 0.00823 | 0.0303 |  |  | C#Cc1c(F)ccc2cc(O)cc(-c3ncc4c(N5CC6CCC(C5)N6)nc(OC[C@@H]5CCCN5CCCOCCC(=O)N[C@H](C(=O)N5C[C@H](O)C[C@H]5C(=O)N[C@@H](CO)c5ccc(-c6c(F)cccc6F)cc5)C(C)(C)C)nc4c3F)c12 [Example 32, (2S,4R)-1-((2S)-2-(3-(3-((2S)-2-(((4-(3,8-diazabicyclo[3.2.1]octan-3-yl)-7-(8-ethynyl-7-fluoro-3-hydroxynaphthalen-1-yl)-8-fluoropyrido[4,3-d]pyrimidin-2-yl)oxy)methyl)pyrrolidin-1-yl)propoxy)propanamido)-3,3-dimethylbutanoyl)-N—((R)-1-(2′,6′-difluoro-[1,1′-biphenyl]-4-yl)-2-hydroxyethyl)-4-hydroxypyrrolidine-2-carboxamide]
5 | 0.00838 | 0.0278 |  |  | C#Cc1c(F)ccc2cc(O)cc(-c3ncc4c(N5CC6CCC(C5)N6)nc(OC[C@@H]5CCCN5CCCOCCC(=O)N[C@H](C(=O)N5C[C@H](O)C[C@H]5C(=O)N[C@@H](C)c5ccc(-c6c(F)cccc6F)nc5)C(C)(C)C)nc4c3F)c12 [Example 31, (2S,4R)-1-((2S)-2-(3-(3-((2S)-2-(((4-(3,8-diazabicyclo[3.2.1]octan-3-yl)-7-(8-ethynyl-7-fluoro-3-hydroxynaphthalen-1-yl)-8-fluoropyrido[4,3-d]pyrimidin-2-yl)oxy)methyl)pyrrolidin-1-yl)propoxy)propanamido)-3,3-dimethylbutanoyl)-N—((S)-1-(6-(2,6-difluorophenyl)pyridin-3-yl)ethyl)-4-hydroxypyrrolidine-2-carboxamide]
6 | 0.0152 | 0.0658 |  |  | Cc1ncsc1-c1ccc([C@H](C)NC(=O)[C@@H]2C[C@@H](O)CN2C(=O)[C@@H](NC(=O)CCCCN2CCC[C@H]2COc2nc(N3CC4CCC(C3)N4)c3cc(Cl)c(-c4ccc(F)c5sc(N)c(C#N)c45)c(F)c3n2)C(C)(C)C)cc1 [Example 89, (2S,4R)-1-((2S)-2-(5-((2S)-2-(((7-(2-amino-3-cyano-7-fluorobenzo[b]thiophen-4-yl)-4-(3,8-diazabicyclo[3.2.1]octan-3-yl)-6-chloro-8-fluoroquinazolin-2-yl)oxy)methyl)pyrrolidin-1-yl)pentanamido)-3,3-dimethylbutanoyl)-4-hydroxy-N-((S)-1-(4-(4-methylthiazol-5-yl)phenyl)ethyl)pyrrolidine-2-carboxamide]
7 | 0.0154 | 0.799 | 0.015 | 0.799 | Cc1cc(N)nc(-c2c(Cl)cc3c(N4CC5CCC(C4)N5)nc(OC[C@@H]4CCCN4CCCOCCC(=O)N[C@H](C(=O)N4C[C@H](O)C[C@H]4C(=O)N[C@@H](C)c4ccc(-c5scnc5C)cc4)C(C)(C)C)nc3c2F)c1C(F)(F)F [Example 1, (2S,4R)-1-[(2S)-2-[3-[3-[(2S)-2-[[7-[6-amino-4-methyl-3-(trifluoromethyl)-2-pyridyl]-6-chloro-4-(3,8-diazabicyclo[3.2.1]octan-3-yl)-8-fluoro-quinazolin-2-yl]oxymethyl]pyrrolidin-1-yl]propoxy]propanoylamino]-3,3-dimethyl-butanoyl]-4-hydroxy-N-[(1S)-1-[4-(4-methylthiazol-5-yl)phenyl]ethyl]pyrrolidine-2-carboxamide]
8 | 0.00936 | 0.0657 |  |  | C#Cc1c(F)ccc2cc(O)cc(-c3ncc4c(N5CC6CCC(C5)N6)nc(OC[C@@H]5CCCN5CCCOCCC(=O)N[C@H](C(=O)N5C[C@H](O)C[C@H]5C(=O)N[C@@H](C)c5ccc(-c6c(C)ccc(C)c6C)cc5)C(C)(C)C)nc4c3F)c12 [Example 56, (2S,4R)-1-((2S)-2-(3-(3-((2S)-2-(((4-(3,8-diazabicyclo[3.2.1]octan-3-yl)-7-(8-ethynyl-7-fluoro-3-hydroxynaphthalen-1-yl)-8-fluoropyrido[4,3-d]pyrimidin-2-yl)oxy)methyl)pyrrolidin-1-yl)propoxy)propanamido)-3,3-dimethylbutanoyl)-4-hydroxy-N-((S)-1-(2′,3′,6′-trimethyl-[1,1′-biphenyl]-4-yl)ethyl)pyrrolidine-2-carboxamide]
9 | 0.00899 | 1.2 |  |  | C#Cc1c(F)ccc2cc(O)cc(-c3ncc4c(N5CC6CCC(C5)N6)nc(OCCN5CCC(C)(COc6cc([C@H](C(=O)N7C[C@H](O)C[C@H]7C(=O)N[C@@H](C)c7ccc(-c8c(F)cccc8F)cc7)C(C)C)on6)CC5)nc4c3F)c12 [Example 61, (2S,4R)-1-((2R)-2-(3-((1-(2-((4-(3,8-diazabicyclo[3.2.1]octan-3-yl)-7-(8-ethynyl-7-fluoro-3-hydroxynaphthalen-1-yl)-8-fluoropyrido[4,3-d]pyrimidin-2-yl)oxy)ethyl)-4-methylpiperidin-4-yl)methoxy)isoxazol-5-yl)-3-methylbutanoyl)-N-((S)-1-(2′,6′-difluoro-[1,1′-biphenyl]-4-yl)ethyl)-4-hydroxypyrrolidine-2-carboxamide]
10 | 0.00897 | 0.0449 |  |  | C#Cc1c(F)ccc2cc(O)cc(-c3ncc4c(N5CC6CCC(C5)N6)nc(OC[C@@H]5CCCN5CCCOCCC(=O)N[C@H](C(=O)N5C[C@H](O)C[C@H]5C(=O)N[C@@H](C)c5ccc(-c6c(Cl)cccc6Cl)cc5)C(C)(C)C)nc4c3F)c12 [Example 45]
11 | 0.012 | 0.107 |  |  | C[C@H](NC(=O)[C@@H]1C[C@@H](O)CN1C(=O)[C@@H](NC(=O)CCOCCCN1CCC[C@H]1COc1nc(N2CC3CCC(C2)N3)c2cc(Cl)c(-c3ccc(F)c4sc(N)c(C#N)c34)c(F)c2n1)C(C)(C)C)c1ccc(-c2ccccc2Cl)cc1 [Example 25, (2S,4R)-1-((2S)-2-(3-(3-((2S)-2-(((7-(2-amino-3-cyano-7-fluorobenzo[b]thiophen-4-yl)-4-(3,8-diazabicyclo[3.2.1]octan-3-yl)-6-chloro-8-fluoroquinazolin-2-yl)oxy)methyl)pyrrolidin-1-yl)propoxy)propanamido)-3,3-dimethylbutanoyl)-N—((S)-1-(2′-chloro-[1,1′-biphenyl]-4-yl)ethyl)-4-hydroxypyrrolidine-2-carboxamide]
12 | 0.013 | 0.043 |  |  | Cc1ncsc1-c1ccc([C@H](C)NC(=O)[C@@H]2C[C@@H](O)CN2C(=O)[C@@H](NC(=O)CCCCN2CCC[C@H]2COc2nc(N3CC4CCC(C3)N4)c3cc(C(F)(F)F)c(-c4ccc(F)c5sc(N)c(C#N)c45)c(F)c3n2)C(C)(C)C)cc1 [Example 90, (2S,4R)-1-((2S)-2-(5-((2S)-2-(((7-(2-amino-3-cyano-7-fluorobenzo[b]thiophen-4-yl)-4-(3,8-diazabicyclo[3.2.1]octan-3-yl)-8-fluoro-6-(trifluoromethyl)quinazolin-2-yl)oxy)methyl)pyrrolidin-1-yl)pentanamido)-3,3-dimethylbutanoyl)-4-hydroxy-N-((S)-1-(4-(4-methylthiazol-5-yl)phenyl)ethyl)pyrrolidine-2-carboxamide]

Source: US20240293558A1, “KRAS INHIBITOR CONJUGATES” (Erasca, Inc., priority 2021, published 2024)
